{
  "source": "patent US4088653A",
  "about": "“Tetrahydropyridyl derivatives” (Canadian Patents and Developments Limited, priority 1976, dated 1978)",
  "key": {"phenylquinone-writhing": {"system": "phenylquinone-writhing", "assay": "Analgesic activity, phenylquinone-writhing test", "type": "in vivo, Swiss albino mice", "details": "for ED50: Mus musculus, sc, read-out: Ed50 (analgesic activity); for Analgesic activity (in words): mouse, in vivo", "protocol": "(§1) Initially the activity of the compound tested on an animal was determined at a single dose. If the substance was active at this dose, it was subjected to limited repeat testing. If the presence of activity was confirmed by repetition of the testing, a dose response relation was constructed and the effective dose (ED50) determined. If toxicity was encountered with the initial dose, the dose was reduced until one was reached which was tolerated by the animals tested.\nThe active ingredients were suspended in a solution of physiological saline and \"Tween 80\" (TM) surfactant. A dose amounting to 10 milliliters of physiological saline solution and active ingredient per kilogram of bodyweight was administered to the mice according to the dosage as set out in Table 2."}, "carageenan inflamed paw": {"system": "carageenan inflamed paw", "assay": "Anti-inflammatory activity, carageenan-inflamed hind paw volume", "type": "in vivo, Sprague-Dawley rats", "details": "for Response % animals protected, 3 hours after drug / Response % animals protected, 5 hours after drug: subcutaneous, Sprague-Dawley rats; for Anti-inflammatory activity (in words): rat, in vivo", "protocol": "as §1\nSubstances were administered subcutaneously to Sprague-Dawley rats, weighing 100-120 g. A suspension of 0.03% carageenan was injected under the plantar skin of a hind paw. The increase in volume of the inflamed paw was measured 3 and 5 hours after drug administration."}, "blood-glucose": {"system": "blood-glucose", "assay": "Determination of blood-glucose (hyperglycemic activity)", "type": "in vivo, Wistar rats", "details": "for Hyperglycemic activity (in words): rat, in vivo; for % change in blood-glucose concentrations: oral, fasted Wistar rats, 4 hours post-treatment", "protocol": "as §1\nSubstances were suspended in distilled water and were administered orally to over-night fasted Wistar rats. […] (Escalab ® G:15) (Barthelmai and Czok, Klinische Wochenschrift 40: 585 (1962))."}, "[1]": {"details": "32 mg/kg, subcutaneous, Swiss albino mice"}, "[2]": {"details": "64 mg/kg, subcutaneous, Swiss albino mice"}, "[3]": {"details": "128 mg/kg, subcutaneous, Swiss albino mice"}, "[4]": {"details": "256 mg/kg, subcutaneous, Swiss albino mice"}, "[5]": {"details": "subcutaneous, Swiss albino mice, method of Litchfield and Wilcoxon"}},
  "note": "Read-outs that look alike come from different tables or passages of the source.",
  "data": [
    {"smiles": "CC(=O)Oc1ccccc1C(=O)O", "note": "[Aspirin (TM), reference compound]", "values": [
      {"measurement": "ED50", "setting": "phenylquinone-writhing", "result": 52, "unit": "mg/kg"}
    ]},
    {"smiles": "O=C(NN1CC=CCC1)c1ccncc1", "note": "[Compound A-13, N-(4-pyridylcarbonylimino)-1,2,5,6-tetrahydropyridine]", "values": [
      {"measurement": "Response % inhibition (phenylquinone-writhing)", "setting": "phenylquinone-writhing; [1]", "result": 38.6, "unit": "%"},
      {"measurement": "Response % inhibition (phenylquinone-writhing)", "setting": "phenylquinone-writhing; [2]", "result": 58.0, "unit": "%"},
      {"measurement": "Response % inhibition (phenylquinone-writhing)", "setting": "phenylquinone-writhing; [3]", "result": 80.8, "unit": "%"},
      {"measurement": "Response % inhibition (phenylquinone-writhing)", "setting": "phenylquinone-writhing; [4]", "result": 96.0, "unit": "%"},
      {"measurement": "ED50", "setting": "phenylquinone-writhing; [5]", "result": 53, "unit": "mg/kg"},
      {"measurement": "Analgesic activity (in words)", "setting": "phenylquinone-writhing", "result": "active analgesics"},
      {"measurement": "Analgesic activity (in words)", "setting": "phenylquinone-writhing; listed as A13", "result": "analgesic"},
      {"measurement": "Response % animals protected, 3 hours after drug", "setting": "carageenan inflamed paw; 64 mg/kg", "result": 25, "unit": "%"},
      {"measurement": "Response % animals protected, 5 hours after drug", "setting": "carageenan inflamed paw; 64 mg/kg", "result": 75, "unit": "%"},
      {"measurement": "Anti-inflammatory activity (in words)", "setting": "carageenan inflamed paw", "result": "striking anti-inflammatory action"},
      {"measurement": "Anti-inflammatory activity (in words)", "setting": "carageenan inflamed paw; listed as A13", "result": "anti-inflammatory"},
      {"measurement": "Hyperglycemic activity (in words)", "setting": "blood-glucose", "result": "demonstrated hyperglycemic activity"},
      {"measurement": "Hyperglycemic activity (in words)", "setting": "blood-glucose; listed as A13", "result": "hyper-"}
    ]},
    {"smiles": "O=C(NN1CC=CCC1)c1cccnc1", "note": "[Compound A-14, N-(3-pyridylcarbonylimino)-1,2,5,6-tetrahydropyridine]", "values": [
      {"measurement": "Response % inhibition (phenylquinone-writhing)", "setting": "phenylquinone-writhing; [1]", "result": 38.9, "unit": "%"},
      {"measurement": "Response % inhibition (phenylquinone-writhing)", "setting": "phenylquinone-writhing; [2]", "result": 59.2, "unit": "%"},
      {"measurement": "Response % inhibition (phenylquinone-writhing)", "setting": "phenylquinone-writhing; [3]", "result": 81.2, "unit": "%"},
      {"measurement": "Response % inhibition (phenylquinone-writhing)", "setting": "phenylquinone-writhing; [4]", "result": 89.6, "unit": "%"},
      {"measurement": "ED50", "setting": "phenylquinone-writhing; [5]", "result": 47, "unit": "mg/kg"},
      {"measurement": "Analgesic activity (in words)", "setting": "phenylquinone-writhing", "result": "active analgesics"},
      {"measurement": "Analgesic activity (in words)", "setting": "phenylquinone-writhing; listed as A14", "result": "analgesic"},
      {"measurement": "Response % animals protected, 3 hours after drug", "setting": "carageenan inflamed paw; 64 mg/kg", "result": 50, "unit": "%"},
      {"measurement": "Response % animals protected, 5 hours after drug", "setting": "carageenan inflamed paw; 64 mg/kg", "result": 0, "unit": "%"},
      {"measurement": "Hyperglycemic activity (in words)", "setting": "blood-glucose", "result": "demonstrated hyperglycemic activity"},
      {"measurement": "Hyperglycemic activity (in words)", "setting": "blood-glucose; listed as A14", "result": "hyper-"}
    ]},
    {"smiles": "O=C(NN1CC=CCC1)c1ccccn1", "note": "[Compound A-19, N-(2-pyridylcarbonylimino)-1,2,5,6-tetrahydropyridine]", "values": [
      {"measurement": "Response % inhibition (phenylquinone-writhing)", "setting": "phenylquinone-writhing; [3]", "result": 57.3, "unit": "%"},
      {"measurement": "Analgesic activity (in words)", "setting": "phenylquinone-writhing", "result": "active analgesics"},
      {"measurement": "Analgesic activity (in words)", "setting": "phenylquinone-writhing; listed as A19", "result": "analgesic"},
      {"measurement": "Response % animals protected, 3 hours after drug", "setting": "carageenan inflamed paw; 64 mg/kg", "result": 25, "unit": "%"},
      {"measurement": "Response % animals protected, 5 hours after drug", "setting": "carageenan inflamed paw; 64 mg/kg", "result": 75, "unit": "%"},
      {"measurement": "Anti-inflammatory activity (in words)", "setting": "carageenan inflamed paw", "result": "striking anti-inflammatory action"},
      {"measurement": "Anti-inflammatory activity (in words)", "setting": "carageenan inflamed paw; listed as A19", "result": "anti-inflammatory"},
      {"measurement": "% change in blood-glucose concentrations", "setting": "blood-glucose; 100 mg/kg", "result": "+50%"},
      {"measurement": "% change in blood-glucose concentrations", "setting": "blood-glucose; 200 mg/kg", "result": "+50%"},
      {"measurement": "Hyperglycemic activity (in words)", "setting": "blood-glucose", "result": "demonstrated hyperglycemic activity"},
      {"measurement": "Hyperglycemic activity (in words)", "setting": "blood-glucose; listed as A19", "result": "hyper-"}
    ]},
    {"smiles": "O=C(NN1CC=CCC1)c1ccccc1", "note": "[Compound A-20, N-(benzoylimino)-1,2,5,6-tetrahydropyridine]", "values": [
      {"measurement": "Response % inhibition (phenylquinone-writhing)", "setting": "phenylquinone-writhing; 16 mg/kg, subcutaneous, Swiss albino mice", "result": 26.2, "unit": "%"},
      {"measurement": "Response % inhibition (phenylquinone-writhing)", "setting": "phenylquinone-writhing; [1]", "result": 57.4, "unit": "%"},
      {"measurement": "Response % inhibition (phenylquinone-writhing)", "setting": "phenylquinone-writhing; [2]", "result": 59.0, "unit": "%"},
      {"measurement": "Response % inhibition (phenylquinone-writhing)", "setting": "phenylquinone-writhing; [3]", "result": 88.2, "unit": "%"},
      {"measurement": "Response % inhibition (phenylquinone-writhing)", "setting": "phenylquinone-writhing; [4]", "result": 98.0, "unit": "%"},
      {"measurement": "ED50", "setting": "phenylquinone-writhing; [5]", "result": 36, "unit": "mg/kg"},
      {"measurement": "Analgesic activity (in words)", "setting": "phenylquinone-writhing", "result": "active analgesics"},
      {"measurement": "Analgesic activity (in words)", "setting": "phenylquinone-writhing; listed as A20", "result": "analgesic"},
      {"measurement": "Response % animals protected, 3 hours after drug", "setting": "carageenan inflamed paw; 64 mg/kg", "result": 25, "unit": "%"},
      {"measurement": "Response % animals protected, 5 hours after drug", "setting": "carageenan inflamed paw; 64 mg/kg", "result": 50, "unit": "%"}
    ]},
    {"smiles": "O=C(NN1CCC=C(CCCO)C1)c1ccccc1", "note": "[Compound A-21, N-(benzoylimino)-3-(3^1-hydroxypropyl)-1,2,5,6-tetrahydropyridine]", "values": [
      {"measurement": "Response % inhibition (phenylquinone-writhing)", "setting": "phenylquinone-writhing; [3]", "result": 20, "unit": "%"},
      {"measurement": "Analgesic activity (in words)", "setting": "phenylquinone-writhing", "result": "analgesic (slight)"}
    ]},
    {"smiles": "O=C(NN1CCC=C(CCCO)C1)c1ccncc1", "note": "[Compound A-22, N-(4-pyridylcarbonylimino)-3-(3^1-hydroxypropyl)-1,2,5,6-tetrahydropyridine]", "values": [
      {"measurement": "Response % inhibition (phenylquinone-writhing)", "setting": "phenylquinone-writhing; [3]", "result": 43, "unit": "%"},
      {"measurement": "Analgesic activity (in words)", "setting": "phenylquinone-writhing", "result": "analgesic (slight)"}
    ]},
    {"smiles": "O=C(NN1CC=C(CCCO)CC1)c1ccncc1", "note": "[Compound A-23, N-(4-pyridylcarbonylimino)-4-(3^1-hydroxypropyl)-1,2,5,6-tetrahydropyridine]", "values": [
      {"measurement": "Response % inhibition (phenylquinone-writhing)", "setting": "phenylquinone-writhing; [3]", "result": 11, "unit": "%"},
      {"measurement": "Response % animals protected, 3 hours after drug", "setting": "carageenan inflamed paw; 64 mg/kg", "result": 25, "unit": "%"},
      {"measurement": "Response % animals protected, 5 hours after drug", "setting": "carageenan inflamed paw; 64 mg/kg", "result": 75, "unit": "%"},
      {"measurement": "Anti-inflammatory activity (in words)", "setting": "carageenan inflamed paw", "result": "striking anti-inflammatory action"},
      {"measurement": "Anti-inflammatory activity (in words)", "setting": "carageenan inflamed paw; listed as A23", "result": "anti-inflammatory"}
    ]},
    {"smiles": "COc1ccc2c(c1)c(CC(=O)O)c(C)n2C(=O)c1ccc(Cl)cc1", "note": "[Indomethazine (TM), reference compound]", "values": [
      {"measurement": "Response % animals protected, 3 hours after drug", "setting": "carageenan inflamed paw; 12 mg/kg", "result": 50, "unit": "%"},
      {"measurement": "Response % animals protected, 5 hours after drug", "setting": "carageenan inflamed paw; 12 mg/kg", "result": 50, "unit": "%"}
    ]}
  ]
}
